This test deals with HepG2. Put plainly: Antiproliferative activity against human HepG2 cells assessed as reduction in cell viability measured after 48 hrs by CCK-8 assay. It is filed as functional, cell-based. The settings on record: HepG2, 48 h. For orientation: Tetrazolium dyes change colour on reduction, which living cells bring about.
As for `CC(C)[C@]12O[C@H]1[C@@H]1O[C@]13[C@]1(O[C@H]1C[C@H]1C4=C(CC[C@@]13C)C(=O)OC4)[C@@H]2OC(=O)/C=C/c1ccc(S(C)(=O)=O)cc1`, the IC50 stood at 564 nM.
The result for `CC(C)[C@]12O[C@H]1[C@@H]1O[C@]13[C@]1(O[C@H]1C[C@H]1C4=C(CC[C@@]13C)C(=O)OC4)[C@@H]2OC(=O)/C=C/c1ccc(C#N)cc1` reads 591 nM; that for `COc1ccc(/C=C/C(=O)O[C@@H]2[C@@]3(C(C)C)O[C@H]3[C@@H]3O[C@]34[C@]23O[C@H]3C[C@H]2C3=C(CC[C@@]24C)C(=O)OC3)cc1OC`, 686 nM.
The result for `CC(C)[C@]12O[C@H]1[C@@H]1O[C@]13[C@]1(O[C@H]1C[C@H]1C4=C(CC[C@@]13C)C(=O)OC4)[C@@H]2OC(=O)/C=C/c1ccc(N2CCCCC2)cc1` reads 620 nM; that for `CC(C)[C@]12O[C@H]1[C@@H]1O[C@]13[C@]1(O[C@H]1C[C@H]1C4=C(CC[C@@]13C)C(=O)OC4)[C@@H]2OC(=O)/C=C/c1ccc(F)cc1`, 439 nM; that for `COc1cc(/C=C/C(=O)O[C@@H]2[C@@]3(C(C)C)O[C@H]3[C@@H]3O[C@]34[C@]23O[C@H]3C[C@H]2C3=C(CC[C@@]24C)C(=O)OC3)ccc1OCc1ccccc1`, 1020 nM.
The result for `CC(C)[C@]12O[C@H]1[C@@H]1O[C@]13[C@]1(O[C@H]1C[C@H]1C4=C(CC[C@@]13C)C(=O)OC4)[C@@H]2OC(=O)/C=C/c1ccccc1F` reads 381 nM; that for `CC(C)[C@]12O[C@H]1[C@@H]1O[C@]13[C@]1(O[C@H]1C[C@H]1C4=C(CC[C@@]13C)C(=O)OC4)[C@@H]2OC(=O)/C=C/c1ccc(Br)cc1`, 838 nM; that for `COc1cc(CCC(=O)O[C@@H]2[C@@]3(C(C)C)O[C@H]3[C@@H]3O[C@]34[C@]23O[C@H]3C[C@H]2C3=C(CC[C@@]24C)C(=O)OC3)ccc1O`, 818 nM.
`CC(C)[C@]12O[C@H]1[C@@H]1O[C@]13[C@]1(O[C@H]1C[C@H]1C4=C(CC[C@@]13C)C(=O)OC4)[C@@H]2O` [TRIPTOLIDE]: the IC50 amounted to 468 nM.
The same measure for `CC(C)[C@]12O[C@H]1[C@@H]1O[C@]13[C@]1(O[C@H]1C[C@H]1C4=C(CC[C@@]13C)C(=O)OC4)[C@@H]2OC(=O)/C=C/c1ccccc1`: 413 nM.
For the compound `CC(C)[C@]12O[C@H]1[C@@H]1O[C@]13[C@]1(O[C@H]1C[C@H]1C4=C(CC[C@@]13C)C(=O)OC4)[C@@H]2OC(=O)/C=C/c1cccnc1`, the IC50 amounted to 538 nM.
The same measure for `CC(C)[C@]12O[C@H]1[C@@H]1O[C@]13[C@]1(O[C@H]1C[C@H]1C4=C(CC[C@@]13C)C(=O)OC4)[C@@H]2OC(=O)/C=C/c1ccccc1N1CCCCC1`: 1720 nM.
The result for `CC(C)[C@]12O[C@H]1[C@@H]1O[C@]13[C@]1(O[C@H]1C[C@H]1C4=C(CC[C@@]13C)C(=O)OC4)[C@@H]2OC(=O)/C=C/c1ccc(C(F)(F)F)cc1` reads 899 nM.
The same measure for `CC(C)[C@]12O[C@H]1[C@@H]1O[C@]13[C@]1(O[C@H]1C[C@H]1C4=C(CC[C@@]13C)C(=O)OC4)[C@@H]2OC(=O)/C=C/c1ccc([N+](=O)[O-])cc1`: 695 nM; for `CCc1ccc(/C=C/C(=O)O[C@@H]2[C@@]3(C(C)C)O[C@H]3[C@@H]3O[C@]34[C@]23O[C@H]3C[C@H]2C3=C(CC[C@@]24C)C(=O)OC3)cc1`: 454 nM.
On to `CC(C)[C@]12O[C@H]1[C@@H]1O[C@]13[C@]1(O[C@H]1C[C@H]1C4=C(CC[C@@]13C)C(=O)OC4)[C@@H]2OC(=O)CCc1cccnc1`, for which the concentration for half-maximal inhibition (IC50) was found to be 839 nM.
The same measure for `CC(C)[C@]12O[C@H]1[C@@H]1O[C@]13[C@]1(O[C@H]1C[C@H]1C4=C(CC[C@@]13C)C(=O)OC4)[C@@H]2OC(=O)/C=C/c1cc(Br)ccc1F`: 591 nM; for `CCOP(=O)(OCC)Oc1ccc(/C=C/C(=O)O[C@@H]2[C@@]3(C(C)C)O[C@H]3[C@@H]3O[C@]34[C@]23O[C@H]3C[C@H]2C3=C(CC[C@@]24C)C(=O)OC3)cc1OC`: 355 nM; for `COc1cc(/C=C/C(=O)O[C@@H]2[C@@]3(C(C)C)O[C@H]3[C@@H]3O[C@]34[C@]23O[C@H]3C[C@H]2C3=C(CC[C@@]24C)C(=O)OC3)cc(OC)c1OC`: 689 nM.
The same measure for `COc1ccc(/C=C/C(=O)O[C@@H]2[C@@]3(C(C)C)O[C@H]3[C@@H]3O[C@]34[C@]23O[C@H]3C[C@H]2C3=C(CC[C@@]24C)C(=O)OC3)cc1`: 654 nM; for `CC(C)[C@]12O[C@H]1[C@@H]1O[C@]13[C@]1(O[C@H]1C[C@H]1C4=C(CC[C@@]13C)C(=O)OC4)[C@@H]2OC(=O)/C=C/c1ccc(N(C)C)cc1`: 696 nM; for `CC(C)[C@]12O[C@H]1[C@@H]1O[C@]13[C@]1(O[C@H]1C[C@H]1C4=C(CC[C@@]13C)C(=O)OC4)[C@@H]2OC(=O)/C=C/c1ccc(N2CCOCC2)cc1`: 783 nM.
For the compound `CCOP(=O)(OCC)Oc1ccc(/C=C/C(=O)O[C@@H]2[C@@]3(C(C)C)O[C@H]3[C@@H]3O[C@]34[C@]23O[C@H]3C[C@H]2C3=C(CC[C@@]24C)C(=O)OC3)cc1`, the IC50 was 578 nM.
The result for `COc1cc(/C=C/C(=O)O[C@@H]2[C@@]3(C(C)C)O[C@H]3[C@@H]3O[C@]34[C@]23O[C@H]3C[C@H]2C3=C(CC[C@@]24C)C(=O)OC3)cc([N+](=O)[O-])c1OC` reads 663 nM.

What is called IC50 is the concentration at which inhibition is half-maximal.

These data come from ChEMBL document CHEMBL5143682, “Design and synthesis of cinnamic acid triptolide ester derivatives as potent antitumor agents and their biological evaluation” (Bioorg Med Chem Lett, 2022).
